Laboratory results as given in patent US10968203B2, “Pyrimidinyl-pyridyloxy-naphthyl compounds and methods of treating IRE1-related diseases and disorders” (Genentech, Inc., priority 2017, dated 2021).
Structures can show the parent of a compound that is named as a salt.

Tested on: XBP1s-luc 293 LUC
Assay: cellular PD assay, XBP1s-LUC reporter (Example 903)
Format: cell-based
Details: Table 1; read-out: XBP1s-luc 293 LUC (IC50)
Protocol: Inhibition of IRE1α RNase activity was determined in an enzyme assay that measured cleavage of the XBP1 stem loop by autophosphorylated IRE1α. This assay format was chosen to ensure that inhibitors of either the IRE1α kinase or the RNase domains would be identified. Binding to the ATP pocket and inhibition of IRE1α kinase activity are not necessarily required to inhibit the RNase activity. Compounds were also profiled in cellular assays by direct measurement of XBP s (B-DNA assay) or by quantification of the luciferase signal in HT1080 XBP1-Luc, which carries a luciferase fusion that is only in frame and expressed from the spliced XBP1 transcript.
Biological activity of Formula I or I′ compounds was measured by an IRE1 biochemical binding assay (Example 901), a biochemical RNase assay (Example 902), a cellular PD assay, XBP1s-LUC reporter (Example 903), and an IRE1α-based inhibition of multiple myeloma (MM) cell proliferation assay.
All of the exemplary Formula I or I′ compounds in Tables 1 and 2 were made and characterized by LCMS [M+H]^+ (liquid chromatography mass spectroscopy) with detection of parent ion. All of the exemplary Formula I compounds in Tables 1 and 2 were prepared according to the procedures of the Schemes, General Procedures, and Examples. All of the exemplary Formula I or I′ compounds in Tables 1 and 2 were tested for binding to IRE1 (inositol requiring enzyme 1 alpha) and biological activity according to the assays and protocols of Example 901-903. Exemplary Formula I or I′ compounds in Tables 1 and 2 have the following structures, corresponding IUPAC names (ChemBioDraw, Version 12.0.2, CambridgeSoft Corp., Cambridge Mass.), and biological activity. Where more than one name is associated with a Formula I or I′ compound or intermediate in Tables 1 and 2 and the Experimental Procedures, the chemical structure shall define the compound. Assignment of configuration at chiral centers in separated stereoisomers may be tentative, and depicted in Tables 1 and 2 structures for illustrative purposes, before stereochemistry is definitively established, such as from x-ray crystallographic data. In some cases, stereoisomers are separated and tested for biological activity before the stereochemistry of the separated stereoisomers is determined; and stereochemistry in some instances was inferred based on structure-activity relationship (SAR) knowledge from previous compounds. In some cases, the compounds are tested as racemic or diastereomeric mixtures. Where more than one potency value is entered on a row, separated stereoisomers represented by the structure and name on that row were tested. Exemplary compounds of Formula I or I′ in Table 3 can be prepared using methods known in the art or according to procedures similar to those described in the Schemes, General Procedures, and Examples 101-500. Biological activities of compounds in Table 3 can be tested in biological assays, for example, those in Examples 901, 902 and 903 described herein.

Row | Compound | IC50
1 | Cc1ccc2c(NC(=O)CCC(F)(F)F)cccc2c1Oc1ncccc1-c1ccnc(N[C@H]2CCCNC2)n1 [Example 178, (S)-4,4,4-Trifluoro-N-(6-methyl-5-((3-(2-(piperidin-3-ylamino)pyrimidin-4-yl)pyridin-2-yl)oxy)naphthalen-1-yl)butanamide] | 125 nM
2 | Cc1ccc2c(NC(=O)C3CC3C(F)(F)F)cccc2c1Oc1ncccc1-c1ccnc(N[C@H]2CCCNC2)n1 (single isomer, unassigned) [Example 228] | 88 nM
3 | Cc1ccc2c(N3CCCC3=O)cccc2c1Oc1ncccc1-c1ccnc(N[C@H]2CCCNC2)n1 [Example 216, (S)-1-(6-Methyl-5-((3-(2-(piperidin-3-ylamino)pyrimidin-4-yl)pyridin-2-yl)oxy)naphthalen-1-yl)pyrrolidin-2-one] | 260 nM
4 | Cc1ccc2c(NC(=O)C3CC34CCOC4)cccc2c1Oc1ncccc1-c1ccnc(N[C@H]2CCCNC2)n1 (mixture of isomers) [Example 289, N-(6-Methyl-5-((3-(2-(((S)-piperidin-3-yl)amino)pyrimidin-4-yl)pyridin-2-yl)oxy)naphthalen-1-yl)-5-oxaspiro[2.4]heptane-1-carboxamide] | 431 nM
5 | Cc1ccc2c(NS(=O)(=O)N3CCC3)cccc2c1Oc1ncccc1-c1ccnc(N[C@H]2CCCNC2)n1 [Example 195, (S)—N-(6-Methyl-5-((3-(2-(piperidin-3-ylamino)pyrimidin-4-yl)pyridin-2-yl)oxy)naphthalen-1-yl)azetidine-1-sulfonamide] | 202 nM
6 | CCCS(=O)(=O)Nc1cccc2c(Oc3ncccc3-c3ccnc(N[C@@H]4CNCC[C@H]4F)n3)c(C)ccc12 (single isomer, unassigned) [Example 206] | 487 nM
7 | Cc1ccc2c(NC(=O)c3ccc4ccccc4c3)cccc2c1Oc1ncccc1-c1ccnc(N[C@H]2CCCNC2)n1 [Example 174, (S)—N-(6-Methyl-5-((3-(2-(piperidin-3-ylamino)pyrimidin-4-yl)pyridin-2-yl)oxy)naphthalen-1-yl)-2-naphthamide] | 278 nM
8 | Cc1ccc2c(N3CCC4(CC4)C3=O)cccc2c1Oc1ncccc1-c1ccnc(N[C@H]2CCCNC2)n1 [Example 297, (S)-5-(6-Methyl-5-((3-(2-(piperidin-3-ylamino)pyrimidin-4-yl)pyridin-2-yl)oxy)naphthalen-1-yl)-5-azaspiro[2.4]heptan-4-one] | 173 nM
9 | Cc1ccc2c(NC(=O)N3CCCCC3)cccc2c1Oc1ncccc1-c1ccnc(N[C@H]2CCCNC2)n1 [Example 116, (S)—N-(6-Methyl-5-((3-(2-(piperidin-3-ylamino)pyrimidin-4-yl)pyridin-2-yl)oxy)naphthalen-1-yl)piperidine-1-carboxamide hydrochloride] | 430 nM
10 | CCCS(=O)(=O)Nc1cccc2c(Oc3ncccc3-c3ccnc(N[C@H]4CCCNC4)n3)c(Cl)ccc12 [Example 181] | 185 nM
11 | Cc1ccc2c(NS(=O)(=O)CC(C)(C)C)c(F)ccc2c1Oc1ncccc1-c1ccnc(N[C@H]2CCCNC2)n1 [Example 350, (S)—N-(2-Fluoro-6-methyl-5-((3-(2-(piperidin-3-ylamino)pyrimidin-4-yl)pyridin-2-yl)oxy)naphthalen-1-yl)-2,2-dimethylpropane-1-sulfonamide] | 37.4 nM
12 | CCS(=O)(=O)Nc1cccc2c(Oc3ncccc3-c3ccnc(N[C@H]4CCCNC4)n3)c(C)ccc12 [Example 103, (S)—N-(6-Methyl-5-((3-(2-(piperidin-3-ylamino)pyrimidin-4-yl)pyridin-2-yl)oxy)naphthalen-1-yl)ethanesulfonamide] | 255 nM
13 | Cc1ccc2c(N3C(=O)CCC3C)cccc2c1Oc1ncccc1-c1ccnc(N[C@H]2CCCNC2)n1 (mixture of isomers) [Example 237, 5-Methyl-1-(6-methyl-5-((3-(2-((S)-piperidin-3-ylamino)pyrimidin-4-yl)pyridin-2-yl)oxy)naphthalen-1-yl)pyrrolidin-2-one] | 472 nM
14 | Cc1ccc2c(NCc3ncsc3C)cccc2c1Oc1ncccc1-c1ccnc(N[C@H]2CCCNC2)n1 [Example 346, (S)-4-(2-((2-Methyl-5-(((5-methylthiazol-4-yl)methyl)amino)naphthalen-1-yl)oxy)pyridin-3-yl)-N-(piperidin-3-yl)pyrimidin-2-amine] | 136 nM
15 | Cc1ccc2c(NC[C@@H]3CC3(F)F)cccc2c1Oc1ncccc1-c1ccnc(N[C@H]2CCCNC2)n1 (single isomer, unassigned) [Example 343] | 181 nM
16 | Cc1ccc2c(NC[C@H](O)C(F)(F)F)cccc2c1Oc1ncccc1-c1ccnc(N[C@@H]2CNC[C@H](C)C2)n1 [Example 321, (S)-1,1,1-Trifluoro-3-((6-methyl-5-((3-(2-(((3S,5R)-5-methylpiperidin-3-yl)amino)pyrimidin-4-yl)pyridin-2-yl)oxy)naphthalen-1-yl)amino)propan-2-ol] | 7.36 nM
17 | Cc1ccc2c(NC3CCCC3O)cccc2c1Oc1ncccc1-c1ccnc(N[C@H]2CCCNC2)n1 (mixture of isomers) [Example 383, anti-2-((6-Methyl-5-((3-(2-((S)-piperidin-3-ylamino)pyrimidin-4-yl)pyridin-2-yl)oxy)naphthalen-1-yl)amino)cyclopentanol] | 231 nM
18 | Cc1ccc2c(NC(=O)CC3CC3)cccc2c1Oc1ncccc1-c1ccnc(N[C@H]2CCCNC2)n1 [Example 191, (S)-2-Cyclopropyl-N-(6-methyl-5-((3-(2-(piperidin-3-ylamino)pyrimidin-4-yl)pyridin-2-yl)oxy)naphthalen-1-yl)acetamide] | 234 nM

Same assay, conditions: Table 2; hydrochloride; read-out: XBP1s-luc 293 LUC (IC50)

Row | Compound | IC50
19 | Cc1ccc2c(NS(=O)(=O)CC(C)C(F)(F)F)c(F)ccc2c1Oc1ncccc1-c1ccnc(N[C@H]2CCCNC2)n1 (single isomer, unassigned) [Example 455, hydrochloride] | 18 nM

Same assay, conditions: Table 2; read-out: XBP1s-luc 293 LUC (IC50)

Row | Compound | IC50
20 | Cc1ccc2c(NS(=O)(=O)Cc3ccccc3)cccc2c1Oc1ncccc1-c1ccnc(N[C@@H]2CNC[C@H](C)C2)n1 [Example 479, N-[6-Methyl-5-[[3-[2-[[(3S,5R)-5-methyl-3-piperidyl]amino]pyrimidin-4-yl]-2-pyridyl]oxy]-1-naphthyl]-1-phenyl-methanesulfonamide] | 12 nM
21 | Cc1ccc2c(NS(=O)(=O)CCC(F)F)c(F)ccc2c1Oc1ncccc1-c1ccnc(N[C@@H]2CNC[C@H](C)C2)n1 [Example 472, 3,3-Difluoro-N-(2-fluoro-6-methyl-5-((3-(2-(((3S,5R)-5-methylpiperidin-3-yl)amino)pyrimidin-4-yl)pyridin-2-yl)oxy)naphthalen-1-yl)propane-1-sulfonamide] | 8 nM
22 | Cc1ccc2c(NC[C@H](O)C(F)F)cccc2c1Oc1ncccc1-c1ccnc(N[C@H]2CCCNC2)n1 (single isomer, unassigned) [Example 475, hydrochloride] | 19 nM
23 | Cc1ccc2c(NS(=O)(=O)CCC(C)(F)F)c(F)ccc2c1Oc1ncccc1-c1ccnc(N[C@H]2CCCNC2)n1 [Example 442, (S)-3,3-Difluoro-N-(2-fluoro-6-methyl-5-((3-(2-(piperidin-3-ylamino)pyrimidin-4-yl)pyridin-2-yl)oxy)naphthalen-1-yl)butane-1-sulfonamide hydrochloride] | 40 nM
24 | Cc1ccc2c(NS(=O)(=O)N(C)C3CC3)c(F)ccc2c1Oc1ncccc1-c1ccnc(N[C@H]2CCCNC2)n1 [Example 440, 4-[2-[[5-[[Cyclopropyl(methyl)sulfamoyl]amino]-6-fluoro-2-methyl-1-naphthyl]oxy]-3-pyridyl]-2-[[(3S)-3-piperidyl]amino]pyrimidine hydrochloride] | 26 nM
25 | Cc1ccc2c(NS(=O)(=O)C[C@H]3CC34CC4)c(F)ccc2c1Oc1ncccc1-c1ccnc(N[C@H]2CCCNC2)n1 (single isomer, unassigned) [Example 474, hydrochloride] | 52 nM
26 | Cc1cc(CS(=O)(=O)Nc2c(F)ccc3c(Oc4ncccc4-c4ccnc(N[C@@H]5CNC[C@@H](F)C5)n4)c(C)ccc23)no1 (single isomer, unassigned) [Example 468, hydrochloride] | 10 nM
27 | Cc1ccc2c(NC[C@H](O)C3CC3)cccc2c1Oc1ncccc1-c1ccnc(N[C@H]2CCCNC2)n1 (single isomer, unassigned) [Example 489, hydrochloride] | 132 nM
28 | Cc1ccc2c(NS(=O)(=O)C[C@@H]3CC34CC4)c(F)ccc2c1Oc1ncccc1-c1ccnc(N[C@H]2CCCNC2)n1 (single isomer, unassigned) [Example 473, hydrochloride] | 76 nM
